IC50 data for four molecules are collected here from ChEMBL document CHEMBL1148215, “Lipoxygenase inhibitory constituents from Periploca aphylla” (J Nat Prod, 2004).

The nature of this assay: Inhibition of Lipoxygenase 1B.
For `CC(C)(O)/C=C/C1=CC(=O)[C@H](O)C[C@]1(C)O`, the IC50 is 150 µM. The molecule `O=c1cc(-c2ccccc2)oc2cc(O)c(O)c(O)c12` [BAICALEIN] came in with an IC50 of 22.6 µM. `Oc1cc(O)c2c(c1)O[C@H](c1ccc(O)c(Oc3cc([C@H]4Oc5cc(O)cc(O)c5C[C@@H]4O)ccc3O)c1)[C@@H](O)C2` had an IC50 of 19.7 µM. `Oc1cc(O)c2c(c1)O[C@H](c1ccc(O)c(Oc3cc(O)c4c(c3)O[C@H](c3ccc(O)c(O)c3)[C@H](O)C4)c1)[C@H](O)C2` had an IC50 of 13.5 µM.

Usually IC50 stands for the concentration that inhibits the measured activity by half.
